This note sets out measurements from patent US10017451B2, “Lactic acid extraction” (PURAC BIOCHEM BV, priority 2011, dated 2018).

Format in all cases: physicochemical
A short description of data set [1]: MIBK solubility in aqueous MgCl2 solution, gas chromatography (Example 8). The settings on record: aqueous phase. Here is the method: Hereafter, the stirring is stopped, the phases were allowed to separate and a sample was taken from the aqueous bottom phase. The concentration of MIBK in this sample was determined by gas chromatography.
Data set [2] in a line: Stability of solvents in contact with lactic acid feed solution, gas chromatography (Example 6). The settings on record: 60° C. Here is the method: This experiment was conducted to compare the stability of two solvents, MIBK and Isoamyl alcohol in contact with the lactic acid feed solution as prepared in example 1. For each solvent a closed glass reactor was filled with 20 g of solvent and 20 g of the lactic acid feed solution, put in an oven to maintain a temperature of 60° C. and shaken continuously.
After 3 hrs, 24 hrs (1 day) and 168 hrs (1 week) the shaking was stopped for 1 hour to allow the phases to settle, a sample was taken from the solvent top layer, and the composition of the solvent top layer analyzed by gas chromatography.

Data set [3] in a line: Lactic acid distribution ratio MIBK/aqueous MgCl2 solution (Example 7). The settings on record: initial lactic acid 20 wt %. The text has this:
Forward extraction and back extraction as used in the method of the invention are based on the difference in solubility of the lactic acid in water and the organic solvent at different temperatures. The solubility of a compound in one solvent relative to another solvent can be expressed in terms of the distribution ratio (DR). This ratio gives an indication how a compound will be distributed over the aqueous phase (e.g. the aqueous mixture) and the organic phase (e.g. the organic liquid) in a two-phase system at equilibrium. The distribution ratio may be defined as the ratio of the lactic acid concentration dissolved in the organic phase ([lactic acid]organic) over the concentration of the lactic acid dissolved in water ([lactic acid]water) provided that the two phases are in equilibrium with each other: DR=[lactic acid]organic/[lactic acid]water(1)
The resulting two phase system was stirred at 20° C. or 60° C. for 30 minutes with sufficient speed to ensure that both phases are well dispersed. Hereafter, the stirring is stopped, the phases were allowed to separate and samples were taken from both phases. The concentration of lactic acid (wt %) in these samples was determined by potentiometric titration. Hereafter the distribution ratio was calculated as the ratio of the lactic acid concentration (wt %) in the MIBK organic solvent phase divided by the lactic acid concentration (wt %) in the aqueous phase.

For the molecule `CC(=O)CC(C)C` [MIBK, methyl-isobutyl-ketone], the MIBK solubility is on record as 1.8 wt % in data set [1] (MgCl2 0 wt %, 20° C.); 1.4 wt % in data set [1] (MgCl2 0 wt %, 60° C.); 0.48 wt % in data set [1] (MgCl2 15 wt %, 20° C.); 0.20 wt % in data set [1] (MgCl2 15 wt %, 60° C.); 0.17 wt % in data set [1] (MgCl2 30 wt %, 20° C.); 0.11 wt % in data set [1] (MgCl2 30 wt %, 60° C.). In addition, the “changes in purity of the solvent” value in data set [2] (after 168 hrs, GC of solvent top layer) was “no changes in the purity of the MIBK could be detected”.
In data set [2] (24 hrs and 168 hrs samples), `CC(C)CCO` [isoamyl alcohol] had an isoamyllactate concentration of 22.5 area %. This molecule displayed an isoamyllactate formed in data set [2] (after 3 hrs, GC of solvent top layer) of 14.6 area %.
As for `CC(O)C(=O)O` (stereo not drawn) [lactic acid], the “Lactic acid distribution ratio” value in data set [3] (MgCl2 0 wt %, 20° C.) was determined as 0.16 wt %/wt %; in data set [3] (MgCl2 0 wt %, 60° C.), 0.19 wt %/wt %; in data set [3] (MgCl2 10.5 wt %, 20° C.), 0.33 wt %/wt %; in data set [3] (MgCl2 10.5 wt %, 60° C.), 0.37 wt %/wt %; in data set [3] (MgCl2 16.0 wt %, 20° C.), 0.49 wt %/wt %; in data set [3] (MgCl2 16.0 wt %, 60° C.), 0.56 wt %/wt %.
